One data set concerns the target T1, His-SUMO-MAGE-A11 MHD (Homo sapiens, UniProt P43364).
T1 construct: made in house; host or cells: bacteria
T1 sequence (P43364 218-429): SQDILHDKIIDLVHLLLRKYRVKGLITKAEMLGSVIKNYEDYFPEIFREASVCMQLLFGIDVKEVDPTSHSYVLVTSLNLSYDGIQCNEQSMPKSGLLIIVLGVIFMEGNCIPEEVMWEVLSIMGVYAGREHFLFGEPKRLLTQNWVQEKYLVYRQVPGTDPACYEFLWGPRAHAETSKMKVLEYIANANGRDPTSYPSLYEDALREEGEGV
The experiment in a line: Nano-differential scanning fluorimetry (NanoDSF). Conditions: six-point dose response, protein 10 µM. In kind it is binding. How it is done: For NanoDSF measurements, a Prometheus NT.48 instrument (NanoTemper Technologies) was used to determine the melting temperatures. Triplicate samples were prepared in a standard 384-well PCR plate with His-SUMO-MAGE-A11 at 10 µM and ligand concentrations as noted. After incubating the protein and ligands for at least 30 min, capillaries were filled with 10 μL of sample and placed on the sample holder. DMSO was used as a negative reference control while PCF11_6 peptide was used as a positive control validating the assay. A temperature gradient of 1 °C min^−1 from 25 to 95 °C was applied and the intrinsic protein fluorescence at 330 and 350 nm was recorded. The 350 nm to 330 nm ratios of fluorescence measurements were used to calculate the Tm values of each sample using the Nanotemper PR.ThermControl software. Data were further analyzed and plotted using GraphPad Prism (v 8.3.1).
In general terms: DSF heats the sample and reads unfolding from a dye or from intrinsic fluorescence.

The target in another data set is T2, MAGE-A3:AMPKα1 (Homo sapiens, UniProt P43357).
T2 construct: expressed in transfected cells
The experiment in a line: Co-IP of MAGE-A3 with AMPKα1 in cell lysate. It counts as binding. Conditions: 100 µM, 24 h. How it is done:
HEK293FT cells were plated in 6 cm^2 plates and transfected 24 h later with Effectene (QIAGEN) according to the manufacturer’s protocol. After 48 h, cells were washed and scraped in cold PBS, spun down, and resuspended in lysis buffer (50 mM Tris pH 7.4, 150 mM NaCl, 1 mM DTT, 0.1% (v/v) Triton X-100, 10 mM N-Ethylmaleimide, and 1X protease inhibitor cocktail (Sigma)). Cell lysates were incubated with appropriate antibodies overnight at 4 °C and then with protein A beads for 2 h at 4 °C. Beads were then washed with lysis buffer three times and eluted with 2X SDS sample buffer.
For western blotting, samples in SDS sample buffer were resolved on SDS-PAGE gels and then transferred to nitrocellulose membranes prior to blocking in TBST with 5% (w/v) milk powder or 3% (w/v) bovine serum albumin and probing with primary and secondary antibodies (GE Healthcare). Primary antibodies were: anti-Myc (Sigma, #C3956), anti-FLAG (Sigma, #F3165), anti-HUWE1 (Novus Biologicals, #NB 100-652), anti-PCF11 (Bethyl Laboratories, #A303-706A), anti-GAPDH (Cell Signaling Technology, #2118), anti-TRIM28 (Abcam, #ab22553), anti-AMPKα1 (Cell Signaling Technology, #2795), and anti-MMS19 (Proteintech, #16015-1-AP) and Tb-anti-GST (Invitrogen, #PV3551). Secondary antibodies were: Donkey Anti-Rabbit IgG (GE Healthcare, NA934V) and Sheep Anti-Mouse IgG (GE Healthcare, NA931V). […]

The nature of data set [1]: Solubility assay (μSOL Evolution). In kind it is physicochemical. Conditions: citrate phosphate-buffered saline (isotonic) with 1% DMSO; 18 h at RT. How it is done:
Solubility assays were carried out on a Biomek FX lab automation workstation (Beckman Coulter, Inc., Fullerton, CA) using μSOL Evolution software (pION Inc., Woburn, MA). The detailed method is described as follows. 10 µl of 10 mM compound stock (in DMSO) was added to 190 μl 1-propanol to make a reference stock plate. In total, 5 µl from this reference stock plate were mixed with 70 µl 1-propanol and 75 µl citrate phosphate-buffered saline (PBS; isotonic) to make the reference plate, and the UV spectrum (250–500 nm) of the reference plate was read. In total, 6 µl of 10 mM test compound stock was added to 594 µl buffer in a 96-well storage plate and mixed. The storage plate was sealed and incubated at RT for 18 h. The suspension was then filtered through a 96-well filter plate (pION Inc., Woburn, MA). In all, 75 µl of filtrate was mixed with 75 µl 1-propanol to make the sample plate, and the UV spectrum of the sample plate was read. Calculations were carried out with μSOL Evolution software based on the area under the curve (AUC) of the UV spectrum of the sample and reference plates. All compounds were tested in triplicate.

Data set [2] in a line: High throughput Caco-2 permeability. It counts as in vitro ADME. Conditions: human, Caco-2, pH 7.4, 10 µmol/l, 2 h; for Papp A→B at 2 h, 10 µmol/l: apical to basolateral; for Papp B→A at 2 h, 10 µmol/l: basolateral to apical. As for the experimental part: High throughput Caco-2 permeability was performed in the TranswellR 0.4 µm polycarbonate membrane 96-well system with modified methods. Caco-2 cells were maintained at 37 °C in a humidified incubator with an atmosphere of 5% CO2. The cells were cultured in 75 cm^2 flasks with Dulbecco’s Modified Eagle’s Medium (DMEM) containing 10% (v/v) FBS, 1% (v/v) non-essential amino acids (NEAA), 100 units/ml of penicillin, and 100 µg/ml of streptomycin. The Caco-2 cells were seeded onto inserts at a density of 2 × 10^4 cells/insert separately. The medium in the wells was exchanged each other day, and the trans epithelial electrical resistance (TEER) value was measured using an epithelial voltohm meter (Millipore, Billerica, Massachusetts). […] For transport experiments, each cultured monolayer on the 96-well plate was washed twice with a transport buffer (HBSS containing 25 mM HEPES, pH 7.4). The permeability assay was initiated by the addition of each compound solution (10 µmol/l) into inserts (apical side, A) or receivers (basolateral side, B). The Caco-2 cell monolayers were incubated for 2 h at 37 °C. Fractions were collected from receivers (if apical to basal permeability) or inserts (if basal to apical permeability), and concentrations were assessed by UPLC/MS (Waters; Milford, MA). All compounds were tested in triplicates. The A → B (or B → A) apparent permeability coefficients (Papp) of each compound were calculated using the equation, Papp = dQ/dt × 1/AC0, where dQ/dt equals the flux of a drug across the monolayer, A equals the total insert well surface area, and C0 is the initial concentration of substrate in the donor compartment. The efflux ratio was determined by dividing the Papp in the B-A direction by the Papp in the A-B direction.
A general note: Caco-2 cells form a polarised layer with tight junctions and transporters.

We go through 2 compounds from paper PMC7529893, “Structural basis for substrate recognition and chemical inhibition of oncogenic MAGE ubiquitin ligases” (Nature Communications, 2020).

Converted amounts (≈) assume the structure as drawn. “Also recorded” adds a separate entry of the source.

T2 sequence (P43357 whole entry): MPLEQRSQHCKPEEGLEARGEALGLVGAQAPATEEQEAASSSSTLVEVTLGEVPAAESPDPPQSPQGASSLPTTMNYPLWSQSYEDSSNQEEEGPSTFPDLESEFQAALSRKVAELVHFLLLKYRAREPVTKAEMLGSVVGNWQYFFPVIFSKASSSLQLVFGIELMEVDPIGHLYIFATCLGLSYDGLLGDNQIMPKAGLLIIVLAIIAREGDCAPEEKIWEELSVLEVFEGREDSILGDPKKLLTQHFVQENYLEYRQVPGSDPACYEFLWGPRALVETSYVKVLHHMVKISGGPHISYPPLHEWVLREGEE

One may read the solubility as the concentration that dissolves in the medium under given conditions. High values mean much dissolved substance, low ones little dissolved substance. Broadly, the Papp A→B is the apparent permeability from the apical to the basolateral side of a cell layer. Lower therefore signals poor permeation. The Papp B→A is the apparent permeability from the basolateral to the apical side of a cell layer. In the case of `FC(F)(F)c1ccc2c(NCCCNCc3ccc4[nH]ccc4c3)ccnc2c1` [SJ000521054-02], the “thermal stabilization of MAGE-A11 (NanoDSF)” value at His-SUMO-MAGE-A11 MHD (listed as SJ521054) was “showed stabilization of MAGE-A11; also recorded: stabilized MAGE-A11”. On MAGE-A3:AMPKα1 (listed as SJ521054), the “interaction of MAGE-A3 with AMPKα1 in cell lysate” value is given as “do not disrupt interaction; also recorded: did not disrupt interaction”. The same compound displayed a solubility at 18 h in data set [1] of 26.5 µM (≈ 10.6 µg/mL). In data set [2], the Papp A→B at 2 h, 10 µmol/l is 11.5 ×10⁻⁶ cm/s and the apparent permeability from basolateral to apical (Papp B→A) at 2 h, 10 µmol/l amounted to 14.2 ×10⁻⁶ cm/s.
As to `c1ccc2c(NCCCNCc3ccc4[nH]ccc4c3)ccnc2c1` [SJ001008066-01], the “thermal stabilization of MAGE-A11 (NanoDSF)” value on His-SUMO-MAGE-A11 MHD (listed as SJ1008066) is given as “showed stabilization of MAGE-A11; also recorded: stabilized MAGE-A11”. For the same compound, the “interaction of MAGE-A3 with AMPKα1 in cell lysate” value on MAGE-A3:AMPKα1 (listed as SJ1008066) is on record as “do not disrupt interaction; also recorded: did not disrupt interaction”. In data set [1], this compound displayed a solubility at 18 h of 37.8 µM (≈ 12.5 µg/mL). Also, in data set [2], the Papp A→B at 2 h, 10 µmol/l was determined as 8.17 ×10⁻⁶ cm/s and the Papp B→A at 2 h, 10 µmol/l is 8.09 ×10⁻⁶ cm/s.
